Like-named read-outs stand apart in the source and are kept apart here.

Experimental findings from publication PMC12115147, “Identification of 3-[(4-Acetylphenyl)(4-Phenylthiazol-2-Yl)Amino]Propanoic Acid Derivatives as Promising Scaffolds for the Development of Novel Anticancer Candidates Targeting SIRT2 and EGFR” (Pharmaceuticals, 2025) are described below.

Series [1] concerns H69 human lung carcinoma cells. Kind of series: MTT cell viability assay in H69 cells. In kind it is cell-based. Particulars: NCI-H69, 24 h, normalized to untreated control.
Procedure: (§2) The dissolved compounds were then manually dispensed into deep 96-well plates, sealed, and stored at −80 °C until the day of the experiment. For the in vitro antiproliferative activity screening, the compounds were thawed at room temperature, protected from light, and the aliquots were diluted in complete cell culture media to achieve a final concentration of 100 µM and used for the in vitro assays.
(§3) The A549 non-small cell human lung carcinoma cells (ATCC CCL-185), H69 (HTB-19), H69AR (CRL-11351) were obtained from the American Type Culture Collection (Rockville, MD, USA). […] All cells were cultivated in Dulbecco’s Modified Eagle Medium/Nutrient Mixture F-12 (DMEM/F-12) (Gibco, Waltham, MA, USA), 10% fetal bovine serum (FBS) (Gibco, Waltham, MA, USA), 100 U/mL penicillin, and 100 μg/mL streptomycin (P/S) (Gibco, Waltham, MA, USA). Culturing conditions were maintained at 37 °C with a humidified atmosphere containing 5% CO2. The culture medium was refreshed every 2–3 days, and cells were passaged upon reaching 70–80% confluence.
(§4) The in vitro inhibitory effects of the compounds were assessed using the MTT assay [40, 41, 42, 43, 44]. Briefly, cells were plated in 96-well plates at a density of 1 × 10^4 cells per well. After allowing the cells to adhere overnight at 37 °C in 5% CO2, they were treated with compounds at concentration of 100 µM in triplicate. Following a 20 h incubation, MTT reagent was added, and the cells were further incubated for 4 h. The resulting formazan was solubilized in anhydrous DMSO, and absorbance was measured at 570 nm using a microplate reader. Cell viability was calculated using the following formula: ([AE − AB]/[AC − AB]) × 100%, where AE, AC, and AB represent the absorbance values of experimental samples, untreated controls, and blank wells, respectively. Data analysis was performed using GraphPad Prism or QuickCalcs (2.0 version).
For series [2], the system named is A549 agarose-based spheroids. Kind of series: AO/PI staining of A549 spheroids. The format is cell-based, human. The settings on record: 100 µM, 24 h. On the procedure:
(§1) A549 tumor spheroids were generated using an agarose-based technique with modifications. A549 cells were plated at a density of 2.5 × 10^5 cells/well in 96-well plates pre-coated with 50 µL of 1% agarose in Dulbecco’s Phosphate-Buffered Saline (DPBS). The plates were incubated for 48 h to allow spheroid formation. After 48 h, the spheroids were treated with 100 µM of compounds dissolved in DMEM/F12 supplemented with 10% FBS and 0.25% DMSO for 24 h.
After treatment with compounds, spheroids were incubated with 5 µg/mL acridine orange and 5 µg/mL propidium iodide for 30 min at 37 °C in a humidified incubator. Following incubation, the spheroids were washed twice with DPBS to remove excess stain. The stained spheroids were then visualized using the EVOS cell imaging system (Thermo Fisher Scientific, Waltham, MA, USA). The fluorescent images were captured, and the viability of the spheroids was assessed based on the differential staining patterns, with live cells showing green fluorescence (acridine orange) and dead cells displaying red fluorescence (propidium iodide).

Series [3] concerns A549 human lung adenocarcinoma cells. Kind of series: cells. Particulars: A549, 24 h; for viability at 100 µM: read-out: A549 cell viability.
Procedure: as §2
(§5) All cells were cultivated in Dulbecco’s Modified Eagle Medium/Nutrient Mixture F-12 (DMEM/F-12) (Gibco, Waltham, MA, USA), 10% fetal bovine serum (FBS) (Gibco, Waltham, MA, USA), 100 U/mL penicillin, and 100 μg/mL streptomycin (P/S) (Gibco, Waltham, MA, USA). Culturing conditions were maintained at 37 °C with a humidified atmosphere containing 5% CO2. The culture medium was refreshed every 2–3 days, and cells were passaged upon reaching 70–80% confluence.
as §4
(§6) The IC50 values, defined as the concentration of compound required to reduce cell viability by 50%, were determined using a dose–response curve. The data were fitted to a nonlinear regression model (GraphPad Prism version 9.0, GraphPad Software, San Diego, CA, USA) to calculate the IC50 values for each compound tested in triplicate.
In series [4] the test system is H69AR cells. Kind of series: MTT cell viability assay in anthracycline-resistant H69AR cells. The format is cell-based. Particulars: Homo sapiens, 24 h, normalized to untreated control.
Procedure: as §2, §3, §4
The subject of series [5] is A549 agarose-based spheroids. Kind of series: LDH release cytotoxicity assay in A549 3D spheroids. Particulars: 100 µM, 24 h. In kind it is cell-based, human. On the procedure:
as §1
A549 tumor spheroids were generated in 96-well plates pre-coated with 50 µL of 1% agarose in Dulbecco’s Phosphate-Buffered Saline (DPBS), as described previously. After 48 h of spheroid formation, the spheroids were treated with compounds dissolved in DMEM/F12 supplemented with 10% FBS and 0.25% DMSO. After a 24 h incubation, spheroid-conditioned media were collected by centrifuging the plates at 1000× g for 2 min to remove the spheroids. Then, 50 µL of the supernatant was transferred to a new 96-well plate and mixed with LDH assay reagent (Pierce LDH Cytotoxicity Assay Kit, Thermo Fisher Scientific, Waltham, MA, USA) according to the manufacturer’s instructions. A commercial maximum LDH control was used to normalize the results. The percentage of LDH release was calculated based on the absorbance readings, using the formula: (sample absorbance − blank absorbance)/(maximum control absorbance − blank absorbance) × 100%.
For orientation: Release of lactate dehydrogenase indicates damage to the cell membrane.

The test system of series [6] is HEK293 human embryonic kidney cells. Kind of series: MTT cytotoxicity in non-cancerous HEK293 cells. In kind it is cell-based. Particulars: 24 h.
Procedure: as §5, §4, §6
Series [7] relates to A549 human lung adenocarcinoma cells. The settings on record: for A549 cell viability: 100 µM.
Procedure: as §2, §5, §4, §6

As usually defined, the viability is a per cent measure of how many cells are alive, often set against a control. As a reminder, the IC50 is the point on the concentration scale where inhibition reaches its midpoint. Turning to `C/C(=N/O)c1ccc(N(CCC(=O)O)c2nc(-c3ccc(Cl)cc3)cs2)cc1` [Compound 22, 3-/[4-(4-Chlorophenyl)thiazol-2-yl]{4-[1-(hydroxyimino)ethyl]phenyl}amino/propanoic acid], the viability at 100 µM in series [1] was 33.9%; in series [3], 37.6%; in series [4], 26.6%. Besides, the “spheroid morphology and cell viability by AO/PI staining” value (“spheroid morphology and cell viability” below) in series [2] is on record as “partial cell death”. Besides, the results for the IC50 in series [3] and in series [6] (Homo sapiens) were 2.47 µM and 38 µM, respectively. The “LDH release (cytotoxicity)” value in series [5] amounted to 40.6%.

For the compound `C/C(=N/O)c1ccc(N(CCC(=O)NN)c2nc(-c3ccc(Cl)cc3)cs2)cc1` [Compound 26, 3-/[4-(4-Chlorophenyl)thiazol-2-yl]{4-[1-(hydroxyimino)ethyl]phenyl}amino/propanehydrazide], the figures for the viability at 100 µM in series [1], in series [3] and in series [4] were 67%, 30.5% and 15.4%, respectively. Besides, the “spheroid morphology and cell viability” value in series [2] was “substantial disruption of spheroid architecture and widespread PI-positive staining”. In addition, the IC50 in series [3] came out at 25.4 µM; in series [6] (Homo sapiens), 13.8 µM. For the same compound, the “LDH release (cytotoxicity)” value in series [5] is 89.9%.

In the case of `CC(=NN)c1ccc(N(CCC(=O)NN)c2nc(-c3ccc(Cl)cc3)cs2)cc1` [Compound 32, 3-{[4-(4-Chlorophenyl)thiazol-2-yl][4-(1-hydrazineylideneethyl)phenyl]amino}propanehydrazide], the viability at 100 µM in series [3] worked out at 84%.

`N.N.[Cl][Pt][Cl]` [CP, cisplatin, reference compound]: the IC50 is 11.7 µM in series [7] (A549 cells, 24 h, MTT) and 5.57 µM in series [6].

For `C/C(=N/O)c1ccc(N(CCC(=O)O)c2nc(-c3ccccc3)cs2)cc1` [Compound 21, 3-/{4-[1-(Hydroxyimino)ethyl]phenyl}(4-phenylthiazol-2-yl)amino/propanoic acid], the viability at 100 µM worked out at 18.3% in series [1], 35.3% in series [3] and 23.5% in series [4]. In series [2], the “spheroid morphology and cell viability” value is on record as “partial cell death”. Moreover, the IC50 is 5.42 µM in series [3] and 14.6 µM in series [6] (Homo sapiens). In addition, the “LDH release (cytotoxicity)” value in series [5] turned out to be 66.7%.

As for `CC(=NNc1ccccc1)c1ccc(N(CCC(=O)O)c2nc(-c3ccccc3)cs2)cc1` [Compound 27, 3-/{4-[1-(2-Phenylhydrazineylidene)ethyl]phenyl}(4-phenylthiazol-2-yl)amino/propanoic acid], the A549 cell viability in series [7] is 82.4–100%.

For `COC(=O)CCN(c1ccc(C(C)=O)cc1)c1nc(-c2ccc(Cl)cc2)cs1` [Compound 30, Methyl 3-{(4-acetylphenyl)[4-(4-chlorophenyl)thiazol-2-yl]amino}propanoate], in series [3], the viability at 100 µM lay within 82.4 to 100%.

`CC(=NN)c1ccc(N(CCC(=O)NN)c2nc(-c3ccccc3)cs2)cc1` [Compound 31, 3-{[4-(1-Hydrazineylideneethyl)phenyl](4-phenylthiazol-2-yl)amino}propanehydrazide]: in series [3], the viability at 100 µM amounted to 67.1%.

With “3,3′-{[(Phenylmethylene)bis(4-phenylthiazole-2,5-diyl)]bis[(4-acetylphenyl)azanediyl]}dipropionic acid [Compound 13]”, the A549 cell viability in series [7] stood at 57.6%.

As for `C/C(=N/O)c1ccc(N(CCC(=O)NN)c2nc(-c3ccccc3)cs2)cc1` [Compound 25, 3-/{4-[1-(Hydroxyimino)ethyl]phenyl}(4-phenylthiazol-2-yl)amino/propanehydrazide], the results for the viability at 100 µM in series [1], in series [3] and in series [4] were 27.7%, 25% and 48.4%, respectively. The “spheroid morphology and cell viability” value in series [2] is “substantial disruption of spheroid architecture and widespread PI-positive staining”. Besides, the IC50 amounted to 8.05 µM in series [3] and 10.7 µM in series [6] (Homo sapiens). The “LDH release (cytotoxicity)” value in series [5] was found to be 72.1%.

On to `COC(=O)CCN(c1ccc(/C(C)=N\O)cc1)c1nc(-c2ccccc2)cs1` [Compound 23, Methyl 3-/{4-[1-(hydroxyimino)ethyl]phenyl}(4-phenylthiazol-2-yl)amino/propanoate], for which the viability at 100 µM in series [3] was found to be 41.9%.

Consider `CC(=NNc1ccccc1)c1ccc(N(CCC(=O)O)c2nc(-c3ccc(Cl)cc3)cs2)cc1` [Compound 28, 3-/[4-(4-Chlorophenyl)thiazol-2-yl]{4-[1-(2-phenylhydrazineylidene)ethyl]phenyl}amino/propanoic acid], for which, in series [7], the A549 cell viability was 82.4–100%.

As for `COC(=O)CCN(c1ccc(/C(C)=N\O)cc1)c1nc(-c2ccc(Cl)cc2)cs1` [Compound 24, Methyl 3-/[4-(4-chlorophenyl)thiazol-2-yl]{4-[1-(hydroxyimino)ethyl]phenyl}amino/propanoate], the viability at 100 µM in series [3] is 77.7%.

With `CC(=O)c1ccc(N(CCC(=O)O)c2nc(-c3ccccc3)c(C(c3ccc(F)cc3)c3sc(N(CCC(=O)O)c4ccc(C(C)=O)cc4)nc3-c3ccccc3)s2)cc1` [Compound 14, 3,3′-/{[(4-Fluorophenyl)methylene]bis(4-phenylthiazole-5,2-diyl)}bis[(4 acetylphenyl)azanediyl]/dipropionic acid], in series [3], the viability at 100 µM came to 47.8%.

Turning to `COC(=O)CCN(c1ccc(C(C)=O)cc1)c1nc(-c2ccccc2)cs1` [Compound 29, Methyl 3-[(4-acetylphenyl)(4-phenylthiazol-2-yl)amino]propanoate], the viability at 100 µM in series [3] was 82.4 to 100%.

With `COc1cccc2c1C(=O)c1c(O)c3c(c(O)c1C2=O)C[C@@](O)(C(=O)CO)C[C@@H]3O[C@H]1C[C@H](N)[C@H](O)[C@H](C)O1` [DOX, doxorubicin, reference compound], the IC50 in series [3] stood at 3.02 µM; in series [6] (Homo sapiens) it was 3.82 µM.
